Source: paper doi:10.1101/2020.07.01.182642v1 (biorxiv, 2020)
Each block holds one molecule with its values, some of them ahead of it.

Legend:
Conditions in all cases: binder
RPS6KA1 = RPS6KA1 (Homo sapiens, UniProt Q15418)
PLK4 = target: T1, PLK4 (Homo sapiens, UniProt O00444)
T1 sequence (O00444 1-970): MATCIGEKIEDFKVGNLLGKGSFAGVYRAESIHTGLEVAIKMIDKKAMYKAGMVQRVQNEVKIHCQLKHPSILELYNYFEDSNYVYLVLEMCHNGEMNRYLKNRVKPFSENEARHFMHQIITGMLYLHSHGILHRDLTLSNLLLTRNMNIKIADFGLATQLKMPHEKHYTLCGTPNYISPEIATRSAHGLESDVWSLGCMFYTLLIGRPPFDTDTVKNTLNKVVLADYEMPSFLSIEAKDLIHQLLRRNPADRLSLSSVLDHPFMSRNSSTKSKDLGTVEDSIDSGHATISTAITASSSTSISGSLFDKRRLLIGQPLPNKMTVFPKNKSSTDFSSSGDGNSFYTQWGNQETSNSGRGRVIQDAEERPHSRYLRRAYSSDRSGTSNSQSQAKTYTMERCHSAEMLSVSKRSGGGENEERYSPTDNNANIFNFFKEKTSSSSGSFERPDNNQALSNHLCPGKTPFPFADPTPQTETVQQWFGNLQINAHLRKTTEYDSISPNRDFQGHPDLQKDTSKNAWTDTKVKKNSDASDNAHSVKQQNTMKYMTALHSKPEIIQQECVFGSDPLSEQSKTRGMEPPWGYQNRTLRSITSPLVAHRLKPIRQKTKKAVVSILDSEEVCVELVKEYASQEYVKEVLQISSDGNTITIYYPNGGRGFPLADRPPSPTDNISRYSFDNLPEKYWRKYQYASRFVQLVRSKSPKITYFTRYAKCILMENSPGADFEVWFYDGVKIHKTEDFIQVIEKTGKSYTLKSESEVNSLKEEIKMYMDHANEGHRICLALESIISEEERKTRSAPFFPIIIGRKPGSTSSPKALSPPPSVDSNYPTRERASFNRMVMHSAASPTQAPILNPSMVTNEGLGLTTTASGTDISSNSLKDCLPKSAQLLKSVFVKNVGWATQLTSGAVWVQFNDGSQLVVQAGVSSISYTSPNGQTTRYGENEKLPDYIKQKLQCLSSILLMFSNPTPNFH

CDKL1 = CDKL1 (Homo sapiens, UniProt Q00532)
Sequence of CDKL1 (Q00532 whole entry): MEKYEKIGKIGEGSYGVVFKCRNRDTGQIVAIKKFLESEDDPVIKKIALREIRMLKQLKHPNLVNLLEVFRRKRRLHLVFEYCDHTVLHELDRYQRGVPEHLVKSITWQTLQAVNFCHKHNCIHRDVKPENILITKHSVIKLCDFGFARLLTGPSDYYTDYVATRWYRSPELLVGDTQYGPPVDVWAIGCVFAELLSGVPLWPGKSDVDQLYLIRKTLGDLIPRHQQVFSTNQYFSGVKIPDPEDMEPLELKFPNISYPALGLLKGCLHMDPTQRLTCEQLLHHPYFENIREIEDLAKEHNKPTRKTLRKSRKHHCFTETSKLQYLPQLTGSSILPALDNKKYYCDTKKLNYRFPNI

MAP2K2 = MAP2K2 (Homo sapiens, UniProt P36507)
Sequence of MAP2K2 (P36507 whole entry): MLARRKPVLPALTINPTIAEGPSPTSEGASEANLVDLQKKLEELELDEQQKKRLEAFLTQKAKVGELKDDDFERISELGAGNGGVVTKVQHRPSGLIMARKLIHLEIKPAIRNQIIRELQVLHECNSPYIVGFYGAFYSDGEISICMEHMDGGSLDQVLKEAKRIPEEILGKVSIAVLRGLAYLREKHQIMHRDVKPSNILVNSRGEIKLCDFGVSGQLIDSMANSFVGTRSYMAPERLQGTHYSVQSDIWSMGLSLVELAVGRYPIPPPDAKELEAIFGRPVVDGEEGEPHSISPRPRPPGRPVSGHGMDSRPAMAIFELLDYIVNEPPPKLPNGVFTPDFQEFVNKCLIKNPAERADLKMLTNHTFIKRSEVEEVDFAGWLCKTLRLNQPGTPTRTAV

BMX = target: T2, BMX (Homo sapiens, UniProt P51813)
T2 sequence (P51813 1-675): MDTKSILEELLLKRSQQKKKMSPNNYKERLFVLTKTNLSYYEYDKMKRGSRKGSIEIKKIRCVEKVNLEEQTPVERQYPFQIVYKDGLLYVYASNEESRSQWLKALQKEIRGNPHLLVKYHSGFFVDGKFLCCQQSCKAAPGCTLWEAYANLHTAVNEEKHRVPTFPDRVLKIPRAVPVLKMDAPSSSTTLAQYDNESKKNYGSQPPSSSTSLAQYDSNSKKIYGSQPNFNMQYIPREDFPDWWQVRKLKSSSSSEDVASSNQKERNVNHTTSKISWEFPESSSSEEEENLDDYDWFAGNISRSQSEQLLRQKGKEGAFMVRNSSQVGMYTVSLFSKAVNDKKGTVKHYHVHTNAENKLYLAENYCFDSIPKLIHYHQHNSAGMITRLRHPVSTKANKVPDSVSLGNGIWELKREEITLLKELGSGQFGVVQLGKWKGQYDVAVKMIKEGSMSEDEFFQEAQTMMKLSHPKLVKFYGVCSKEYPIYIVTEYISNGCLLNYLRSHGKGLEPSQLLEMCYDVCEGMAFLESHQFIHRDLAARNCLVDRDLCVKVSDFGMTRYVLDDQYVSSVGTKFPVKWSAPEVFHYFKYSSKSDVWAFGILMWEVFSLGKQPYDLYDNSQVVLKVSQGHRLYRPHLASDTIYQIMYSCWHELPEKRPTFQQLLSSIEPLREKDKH

PRKAA1 = PRKAA1 (Homo sapiens, UniProt Q13131)
Sequence of PRKAA1 (Q13131 whole entry): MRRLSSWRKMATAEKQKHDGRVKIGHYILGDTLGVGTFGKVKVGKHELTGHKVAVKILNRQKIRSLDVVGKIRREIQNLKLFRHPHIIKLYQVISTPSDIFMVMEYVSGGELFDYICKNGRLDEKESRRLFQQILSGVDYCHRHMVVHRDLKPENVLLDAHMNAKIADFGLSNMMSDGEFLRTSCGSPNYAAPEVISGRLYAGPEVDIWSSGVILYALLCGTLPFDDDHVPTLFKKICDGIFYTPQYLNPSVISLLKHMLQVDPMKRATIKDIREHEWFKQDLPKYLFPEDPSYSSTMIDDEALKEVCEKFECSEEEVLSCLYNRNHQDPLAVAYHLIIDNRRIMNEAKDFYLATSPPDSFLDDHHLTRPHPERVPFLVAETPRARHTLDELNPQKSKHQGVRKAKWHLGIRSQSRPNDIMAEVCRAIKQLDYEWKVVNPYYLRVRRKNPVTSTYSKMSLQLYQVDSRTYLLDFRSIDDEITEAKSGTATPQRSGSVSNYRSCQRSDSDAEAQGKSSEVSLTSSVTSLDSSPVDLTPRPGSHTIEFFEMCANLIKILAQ

MYLK4 = target: T3, MYLK4 (Homo sapiens, UniProt Q86YV6)
T3 sequence (Q86YV6 1-388): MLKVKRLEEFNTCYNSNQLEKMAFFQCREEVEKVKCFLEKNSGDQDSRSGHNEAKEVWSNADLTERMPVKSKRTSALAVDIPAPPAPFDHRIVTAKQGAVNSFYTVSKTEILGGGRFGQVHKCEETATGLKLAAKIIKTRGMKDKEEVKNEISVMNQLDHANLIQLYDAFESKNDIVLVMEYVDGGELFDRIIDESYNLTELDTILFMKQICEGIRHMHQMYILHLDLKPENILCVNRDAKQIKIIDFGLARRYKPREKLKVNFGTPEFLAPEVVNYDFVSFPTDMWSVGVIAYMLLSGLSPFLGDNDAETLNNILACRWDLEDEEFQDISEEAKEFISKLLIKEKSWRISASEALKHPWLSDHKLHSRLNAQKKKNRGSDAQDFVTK

STK26 = STK26 (Homo sapiens, UniProt Q9P289)
Sequence of STK26 (Q9P289 whole entry): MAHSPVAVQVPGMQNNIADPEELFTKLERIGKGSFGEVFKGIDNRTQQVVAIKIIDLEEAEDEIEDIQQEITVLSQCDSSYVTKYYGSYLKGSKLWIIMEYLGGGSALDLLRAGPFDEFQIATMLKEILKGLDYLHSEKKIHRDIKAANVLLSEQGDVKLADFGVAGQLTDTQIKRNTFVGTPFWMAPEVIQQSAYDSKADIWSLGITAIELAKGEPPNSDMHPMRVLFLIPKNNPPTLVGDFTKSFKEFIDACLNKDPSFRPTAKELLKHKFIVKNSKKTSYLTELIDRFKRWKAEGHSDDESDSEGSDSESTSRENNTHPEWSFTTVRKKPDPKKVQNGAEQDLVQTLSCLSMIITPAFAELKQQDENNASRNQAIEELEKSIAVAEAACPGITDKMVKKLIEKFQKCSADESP

Sequence of RPS6KA1 (Q15418 whole entry): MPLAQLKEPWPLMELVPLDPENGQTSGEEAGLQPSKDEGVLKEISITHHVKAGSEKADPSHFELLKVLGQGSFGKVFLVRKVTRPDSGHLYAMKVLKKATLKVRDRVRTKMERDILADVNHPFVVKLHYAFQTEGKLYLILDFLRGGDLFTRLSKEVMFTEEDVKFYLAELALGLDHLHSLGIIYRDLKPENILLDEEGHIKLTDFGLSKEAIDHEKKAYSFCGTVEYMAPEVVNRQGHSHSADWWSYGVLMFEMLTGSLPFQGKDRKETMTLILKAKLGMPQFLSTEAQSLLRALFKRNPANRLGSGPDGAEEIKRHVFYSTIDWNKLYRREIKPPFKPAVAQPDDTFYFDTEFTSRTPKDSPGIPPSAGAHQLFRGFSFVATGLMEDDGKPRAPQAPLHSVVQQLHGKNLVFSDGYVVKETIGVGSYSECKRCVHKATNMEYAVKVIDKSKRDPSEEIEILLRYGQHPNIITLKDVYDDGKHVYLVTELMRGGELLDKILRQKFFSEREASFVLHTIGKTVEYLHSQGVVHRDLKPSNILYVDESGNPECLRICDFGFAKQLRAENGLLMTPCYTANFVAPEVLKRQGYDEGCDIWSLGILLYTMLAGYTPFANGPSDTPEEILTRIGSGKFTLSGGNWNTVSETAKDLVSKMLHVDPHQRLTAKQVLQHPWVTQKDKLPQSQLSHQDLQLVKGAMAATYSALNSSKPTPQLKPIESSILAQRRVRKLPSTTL

ΔTm inhibitor 1 (RPS6KA1): 5.2 °C
ΔTm inhibitor 1 (PLK4): 2.6 °C
ΔTm inhibitor 1 (CDKL1): 0.2 °C
ΔTm inhibitor 1 (MAP2K2): 2 °C
ΔTm inhibitor 1 (BMX): 0.4 °C
ΔTm inhibitor 1 (PRKAA1): 1.3 °C
ΔTm inhibitor 1 (MYLK4): 5.8 °C
ΔTm inhibitor 1 (STK26): 0.3 °C
SMILES: CC(=O)c1cccc(-c2cnc3ccc(NCC4CC4)nn23)c1 [compound 1, K00135]

ΔTm inhibitor 2 (RPS6KA1): 0.6 °C
ΔTm inhibitor 2 (PLK4): 0.2 °C
ΔTm inhibitor 2 (CDKL1): 0.4 °C
ΔTm inhibitor 2 (MAP2K2): 0.5 °C
ΔTm inhibitor 2 (BMX): -0.1 °C
ΔTm inhibitor 2 (PRKAA1): -0.3 °C
ΔTm inhibitor 2 (MYLK4): 0.9 °C
ΔTm inhibitor 2 (STK26): -0.3 °C
SMILES: CCN1/C(=C/C(C)=O)Sc2ccc(OC)cc21 [compound 2, TG003]

ΔTm inhibitor 4 (RPS6KA1): 0.6 °C
ΔTm inhibitor 4 (PLK4): 0.4 °C
ΔTm inhibitor 4 (CDKL1): 0.8 °C
ΔTm inhibitor 4 (MAP2K2): 0.1 °C
ΔTm inhibitor 4 (BMX): 0.4 °C
ΔTm inhibitor 4 (PRKAA1): 0.5 °C
ΔTm inhibitor 4 (MYLK4): 3.9 °C
ΔTm inhibitor 4 (STK26): 0.1 °C
SMILES: Nc1nccc(-c2ccc3noc(-c4ccc(Cl)cc4)c3c2)n1 [compound 4, K00972]
